{"source": "patent US8148404B2", "about": "“Modulators of CB1 receptors” (7TM Pharma A/S, priority 2006, dated 2012)", "target": "T1, human CB1 receptor (Homo sapiens, UniProt P21554)", "T1 construct": "expressed in transfected cells; membranes used", "T1 sequence (P21554 whole entry)": "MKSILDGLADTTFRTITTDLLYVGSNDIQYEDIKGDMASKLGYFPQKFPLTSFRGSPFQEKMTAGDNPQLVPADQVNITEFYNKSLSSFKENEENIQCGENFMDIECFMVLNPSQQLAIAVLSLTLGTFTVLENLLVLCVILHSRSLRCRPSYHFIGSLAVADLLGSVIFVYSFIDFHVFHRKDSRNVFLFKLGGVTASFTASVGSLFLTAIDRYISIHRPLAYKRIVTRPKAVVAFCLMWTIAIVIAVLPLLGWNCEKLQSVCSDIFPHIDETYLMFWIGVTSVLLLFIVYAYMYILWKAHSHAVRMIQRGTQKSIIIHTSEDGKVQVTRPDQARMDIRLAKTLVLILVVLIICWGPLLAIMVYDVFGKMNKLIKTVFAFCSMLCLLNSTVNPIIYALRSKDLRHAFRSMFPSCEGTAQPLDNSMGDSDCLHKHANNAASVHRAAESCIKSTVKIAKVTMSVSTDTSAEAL", "experiment": "Cannabinoid Receptor-1 functional assay: inhibition of CP55940-induced [35S]GTPγS binding to membranes of CHO-K1 cells expressing human CB1", "type": "biochemical", "details": "3 nM CP55940, [35S]GTPγS SPA, hCB1 membranes; read-out: IC50 value for antagonizing a CB1 receptor agonist", "from_the_text": "Transfection and Cell Culture—The cDNA encoding the human CB1 (Cannabinoid Receptor-1) receptor (GenBank accession number NM_016083) was cloned from a human adipose tissue cDNA library and cloned into the eukaryotic expression vector pcDNA3.1 (Invitrogen).\nChinese Hamster Ovary cells (CHO-K1) stably expressing recombinant human CB1 were generated by transfecting the plasmid containing the coding sequence of the human CB1 receptor in CHO-K1 cells, using lipofectamin, according to the manufacturer instructions. Resistant clones were selected in the presence of 600 μg/ml G418 (Life technology). Stably transfected CHO-K1 cells were maintained in Ham's F-12 culture medium (Invitrogen), supplemented with 10% fetal calf serum (Invitrogen), 100 U/ml penicillin, 100 μg/ml streptomycin (Life Technology), and 600 μg/ml G418.\nFunctional activities of the above examples of compounds of the invention were assessed in vitro by measuring their ability to inhibit CP55940-induced [^35S]GTPγS binding to membranes prepared from CHO-K1 cells expressing the human CB1 receptor (described in Transfection and Cell Culture). CP55940 is a well known non-selective CB1 and CB2 receptor agonist (e.g Felder et al., 1995, Molecular Pharmacology, (48) 443-50). Membranes were prepared by a standard procedure. Briefly, cells were harvested using 10 mM EDTA and collected by centrifugation. Pelleted cells were homogenized in ice-cold 20 mM Hepes (pH 7.4), 10 mM EDTA and protease inhibitors (Complete protease inhibitor cocktail tablet, Roche) using an Ultra Turrax Homogenizer. The homogenate was centrifuged at 14 000 rpm for 45 min. at 4° C. The resultant pellet was resuspended in the same buffer but with only 0.1 mM EDTA and was again centrifuged at 14 000 rpm for 45 min. at 4° C. The resulting pellet (membranes) was resuspended in 20 mM Hepes (pH 7.4), 0.1 mM EDTA, 2 mM MgCl2 and protease inhibitors and protein concentration was determined by Micro BCA Protein Assay Reagent Kit (Pierce Biotechnology) according to the manufacturer instructions. The [^35S]GTPγS SPA (Scintillation Proximity Assay) binding assay was performed by incubating 5 μg/well hCB1-membranes with 1 nM [^35S]GTPγS (Perkin Elmer—NEG 030H) in the presence of 3 nM of CP55940 and various concentrations of the test compounds at room temperature for 1 hr in 96-well microtiter plates. 0.4 mg/well SPA beads (PVT-WGA; RPNQ0001 Amersham Pharmacia Biotech) were then added and the incubation continued for further 30 min. on an orbital shaker. The assay buffer contained 50 mM HEPES (pH 7.5), 50 mM NaCl, 2.5 mM MgCl2, 0.1% BSA, 1 μM GDP and 100 μg/ml Saponin. Microtiter plates were centrifuged at 1500 rpm for 5 min. and radioactivity was read immediately using a Topcounter (PerkinElmer Life Sciences). Data were analyzed and IC50 values determined by non-linear regression using the Prism software (GraphPad Software, San Diego)."}
{"smiles": "O=C(O)Cc1c(C(=O)N2CCC(c3ccc(F)cc3F)CC2)nn(-c2ccccc2Cl)c1-c1ccc(Cl)cc1", "note": "[[1.26], {1-(2-Chloro-phenyl)-5-(4-chloro-phenyl)-3-[4-(2,4-difluoro-phenyl)-piperidine-1-carbonyl]-1H-pyrazol-4-yl}-acetic acid]", "values": [{"measurement": "IC50", "value": "< 0.3", "unit": "µM"}]}
{"smiles": "O=C(O)Cc1c(C(=O)N2CCC(c3ccccc3F)CC2)nn(-c2ccccc2Cl)c1-c1ccc(Cl)cc1", "note": "[[1.27], {1-(2-Chloro-phenyl)-5-(4-chloro-phenyl)-3-[4-(2-fluoro-phenyl)-piperidine-1-carbonyl]-1H-pyrazol-4-yl}-acetic acid]", "values": [{"measurement": "IC50", "value": "< 0.3", "unit": "µM"}]}
{"smiles": "O=C(O)Cc1c(C(=O)N2CCC(O)(c3ccccc3)CC2)nn(-c2ccccc2Cl)c1-c1ccc(Cl)cc1", "note": "[[1.14], [1-(2-Chloro-phenyl)-5-(4-chloro-phenyl)-3-(4-hydroxy-4-phenyl-piperidine-1-carbonyl)-1H-pyrazol-4-yl]-acetic acid]", "values": [{"measurement": "IC50", "value": "< 0.3", "unit": "µM"}]}
{"smiles": "O=C(O)Cc1c(C(=O)N2CCC(c3cccc(C(F)(F)F)c3)CC2)nn(-c2ccccc2Cl)c1-c1ccc(Cl)cc1", "note": "[[1.40], {1-(2-Chloro-phenyl)-5-(4-chloro-phenyl)-3-[4-(3-trifluoromethyl-phenyl)-piperidine-1-carbonyl]-1H-pyrazol-4-yl}-acetic acid]", "values": [{"measurement": "IC50", "value": "< 0.3", "unit": "µM"}]}
{"smiles": "O=C(O)Cc1c(C(=O)N2CCCC2c2ccc(C(F)(F)F)cc2)nn(-c2ccccc2Cl)c1-c1ccc(Cl)cc1", "note": "(stereo not shown) [[1.38], {1-(2-Chloro-phenyl)-5-(4-chloro-phenyl)-3-[2-(4-trifluoromethyl-phenyl)-pyrrolidine-1-carbonyl]-1H-pyrazol-4-yl}-acetic acid]", "values": [{"measurement": "IC50", "value": "< 0.3", "unit": "µM"}]}
{"smiles": "O=C(O)Cc1c(C(=O)N2CCC(CO)(c3ccccc3)CC2)nn(-c2ccccc2Cl)c1-c1ccc(Cl)cc1", "note": "[[1.50], [1-(2-Chloro-phenyl)-5-(4-chloro-phenyl)-3-(4-hydroxymethyl-4-phenyl-piperidine-1-carbonyl)-1H-pyrazol-4-yl]-acetic acid]", "values": [{"measurement": "IC50", "value": "< 0.3", "unit": "µM"}]}
{"smiles": "O=C(O)Cc1c(C(=O)N2CCC(c3cccc(F)c3)CC2)nn(-c2ccccc2Cl)c1-c1ccc(Cl)cc1", "note": "[Compound [1.13], {1-(2-Chloro-phenyl)-5-(4-chloro-phenyl)-3-[4-(3-fluoro-phenyl)-piper-idine-1-carbonyl]-1H-pyrazol-4-yl}-acetic acid]", "values": [{"measurement": "IC50", "value": "< 0.3", "unit": "µM"}]}
{"smiles": "O=C(O)Cc1c(C(=O)N2CCC(O)(c3ccc(F)cc3)CC2)nn(-c2ccccc2Cl)c1-c1ccc(Cl)cc1", "note": "[[1.7], {1-(2-Chloro-phenyl)-5-(4-chloro-phenyl)-3-[4-(4-fluoro-phenyl)-4-hydroxy-piperidine-1-carbonyl]-1H-pyrazol-4-yl}-acetic acid]", "values": [{"measurement": "IC50", "value": "< 0.3", "unit": "µM"}]}
{"smiles": "O=C(O)Cc1c(C(=O)N2CCC(c3ccncc3)CC2)nn(-c2ccccc2Cl)c1-c1ccc(Cl)cc1", "note": "[[1.32], [1-(2-Chloro-phenyl)-5-(4-chloro-phenyl)-3-(3,4,5,6-tetrahydro-2H-[4,4′]bipyridinyl-1-carbonyl)-1H-pyrazol-4-yl}-acetic acid]", "values": [{"measurement": "IC50", "value": "0.3 to 3", "unit": "µM"}]}
{"smiles": "O=C(O)Cc1c(C(=O)N2CCC(O)(c3ccc(Cl)cc3)CC2)nn(-c2ccccc2Cl)c1-c1ccc(Cl)cc1", "note": "[[1.12], {1-(2-Chloro-phenyl)-5-(4-chloro-phenyl)-3-[4-(4-chloro-phenyl)-4-hydroxy-piperidine-1carbonyl]-1H-pyrazol-4-yl}-acetic acid]", "values": [{"measurement": "IC50", "value": "< 0.3", "unit": "µM"}]}
{"smiles": "O=C(O)Cc1c(C(=O)N2CCC(c3ccccc3Cl)CC2)nn(-c2ccccc2Cl)c1-c1ccc(Cl)cc1", "note": "[[1.54], {1-(2-Chloro-phenyl)-5-(4-chloro-phenyl)-3-[4-(2-chloro-phenyl)-piper-idine-1-carbonyl]-1H-pyrazol-4-yl}-acetic acid]", "values": [{"measurement": "IC50", "value": "< 0.3", "unit": "µM"}]}
{"smiles": "O=C(c1nn(-c2ccccc2Cl)c(-c2ccc(Cl)cc2)c1Cc1nn[nH]n1)N1Cc2ccc(F)cc2C1", "note": "[Compound [3.1], [5-(4-Chloro-phenyl)-1-(2-chloro-phenyl)-4-(2H-tetrazol-5-ylmethyl)-1H-pyrazol-3-yl]-(5-fluoro-1,3-dihydro-isoindol-2-yl)-methanone]", "values": [{"measurement": "IC50", "value": "0.3 to 3", "unit": "µM"}]}
{"smiles": "O=C(O)Cc1c(C(=O)N2CCC(Oc3ccc(Cl)cc3)CC2)nn(-c2ccccc2Cl)c1-c1ccc(Cl)cc1", "note": "[[1.59], {1-(2-Chloro-phenyl)-5-(4-chloro-phenyl)-3-[4-(4-chlorophenoxy)-piperidine-1-carbonyl]-1H-pyrazol-4-yl}-acetic acid]", "values": [{"measurement": "IC50", "value": "< 0.3", "unit": "µM"}]}
{"smiles": "Cc1c(C(=O)N2CCC(C(=O)O)(c3ccccc3)CC2)nn(-c2ccccc2Cl)c1-c1ccc(Cl)cc1", "note": "[[2.1], 1-[5-(4-Chloro-phenyl)-1-(2-chloro-phenyl)-4-methyl-1H-pyrazole-3-carbonyl]-4-phenyl-piperidine-4-carboxylic acid]", "values": [{"measurement": "IC50", "value": "< 0.3", "unit": "µM"}]}
{"smiles": "O=C(O)Cc1c(C(=O)N2CCC(O)(Cc3ccccc3)CC2)nn(-c2ccccc2Cl)c1-c1ccc(Cl)cc1", "note": "[[1.6], [3-(4-Benzyl-4-hydroxy-piperidine-1-carbonyl)-5-(4-chloro-phenyl)-1-(2-chloro-phenyl)-1H-pyrazol-4-yl]-acetic acid]", "values": [{"measurement": "IC50", "value": "< 0.3", "unit": "µM"}]}
{"smiles": "O=C(O)Cc1c(C(=O)N2CCC(Oc3ccc(F)cc3)C2)nn(-c2ccccc2Cl)c1-c1ccc(Cl)cc1", "note": "(stereo not shown) [[1.64], {1-(2-Chloro-phenyl)-5-(4-chloro-phenyl)-3-[3-(4-fluorophenoxy)-pyrrolidine-1-carbonyl]-1H-pyrazol-4-yl}-acetic acid]", "values": [{"measurement": "IC50", "value": "< 0.3", "unit": "µM"}]}
{"smiles": "O=C(c1nn(-c2ccccc2Cl)c(-c2ccc(Cl)cc2)c1Cc1nn[nH]n1)N1CCC(Oc2ccc(Cl)cc2)CC1", "note": "[[3.6], [1-(2-Chloro-phenyl)-5-(4-chloro-phenyl)-4-(2H-tetrazol-5-ylmethyl)-1H-pyrazol-3-yl]-[4-(4-chlorophenoxy)-piperidin-1-yl]-methanone]", "values": [{"measurement": "IC50", "value": "< 0.3", "unit": "µM"}]}
{"smiles": "O=C(O)Cc1c(C(=O)N2CCC(c3cc(Cl)cc(Cl)c3)CC2)nn(-c2ccccc2Cl)c1-c1ccc(Cl)cc1", "note": "[[1.35], {1-(2-Chloro-phenyl)-5-(4-chloro-phenyl)-3-[4-(3,5-dichloro-phenyl)-piperidine-1-carbonyl]-1H-pyrazol-4-yl}-acetic acid]", "values": [{"measurement": "IC50", "value": "< 0.3", "unit": "µM"}]}
{"smiles": "O=C(O)Cc1c(C(=O)N2CCC(Oc3ncc(F)cn3)CC2)nn(-c2ccccc2Cl)c1-c1ccc(Cl)cc1", "note": "[[1.63], {1-(2-Chloro-phenyl)-5-(4-chloro-phenyl)-3-[4-(5-fluoropyrimidin-2-oxy)-piperidine-1-carbonyl]-1H-pyrazol-4-yl}-acetic acid]", "values": [{"measurement": "IC50", "value": "< 0.3", "unit": "µM"}]}
{"smiles": "O=C(O)Cc1c(C(=O)N2CCC(Oc3ccccc3)CC2)nn(-c2ccccc2Cl)c1-c1ccc(Cl)cc1", "note": "[[1.58]]", "values": [{"measurement": "IC50", "value": "< 0.3", "unit": "µM"}]}
{"smiles": "O=C(O)Cc1c(C(=O)N2CCC(OCc3ccccc3)CC2)nn(-c2ccccc2Cl)c1-c1ccc(Cl)cc1", "note": "[[1.49], [3-(4-Benzyloxy-piperidine-1-carbonyl)-1-(2-chloro-phenyl)-5-(4-chloro-phenyl)-1H-pyrazol-4-yl]-acetic acid]", "values": [{"measurement": "IC50", "value": "< 0.3", "unit": "µM"}]}
{"smiles": "O=C(O)Cc1c(C(=O)N2CCN(c3ccccc3)CC2)nn(-c2ccccc2Cl)c1-c1ccc(Cl)cc1", "note": "[Compound [1.2], [1-(2-Chloro-phenyl)-5-(4-chloro-phenyl)-3-(4-phenyl-piperazine-1-carbonyl)-1H-pyrazol-4-yl]-acetic acid]", "values": [{"measurement": "IC50", "value": "0.3 to 3", "unit": "µM"}]}
{"smiles": "O=C(c1nn(-c2ccccc2F)c(-c2ccc(Cl)cc2)c1Cc1nn[nH]n1)N1CCC(Oc2ccc(Cl)cc2)CC1", "note": "[[4.1], [1-(2-Fluoro-phenyl)-5-(4-chloro-phenyl)-4-(2H-tetrazol-5-ylmethyl)-1H-pyrazol-3-yl]-[4-(4-chlorophenoxy)-piperidin-1-yl]-methanone]", "values": [{"measurement": "IC50", "value": "< 0.3", "unit": "µM"}]}
{"smiles": "O=C(O)Cc1c(C(=O)N2CCC(O)(c3csc(Br)n3)CC2)nn(-c2ccccc2Cl)c1-c1ccc(Cl)cc1", "note": "[[1.24], [3-[4-(2-Bromo-thiazol-4-yl)-4-hydroxy-piperidine-1-carbonyl]-5-(4-chloro-phenyl)-1-(2-chloro-phenyl)-1H-pyrazol-4-yl]-acetic acid]", "values": [{"measurement": "IC50", "value": "< 0.3", "unit": "µM"}]}
{"smiles": "O=C(O)Cc1c(C(=O)N2CCC(c3cc(F)cc(F)c3)CC2)nn(-c2ccccc2Cl)c1-c1ccc(Cl)cc1", "note": "[[1.36], {1-(2-Chloro-phenyl)-5-(4-chloro-phenyl)-3-[4-(3,5-difluoro-phenyl)-piperidine-1-carbonyl]-1H-pyrazol-4-yl}-acetic acid]", "values": [{"measurement": "IC50", "value": "< 0.3", "unit": "µM"}]}
